Reference: patent US6916923B2 (Hoffmann-La Roche Inc., priority 1999, dated 2005)
pIC50: −log10 of the molar value.

Assays:
[1] = tested on: colon carcinoma line HCT-116; experiment: HCT-116 cell-based antiproliferative (MTT) assay; settings: Homo sapiens, HCT-116, 96 h, 1000 cells per well, 4 days post addition of test compound, read-out: Antiproliferative Activity HCT 116 (colon) Assay - IC50 Range
Procedure: (§1) The estrogen receptor negative epithelial breast carcinoma line (MDA-MB-435) was purchased from American Type Cell Culture Collection (ATCC; Rockville, Md.) and was grown in the medium recommended by ATCC. For analysis of the effect of the test compounds on growth of these cells, the cells were plated at 2000 cells per well in a 96-well tissue culture plate, and were incubated overnight at 37° C. with 5% CO2. The next day, the test compounds were dissolved in 100% dimethyl sulfoxide (DMSO) to yield a 10 mM stock solution. Each compound was diluted with sterile medium to 1 mM in a sufficient quantity to yield a final concentration of 120 μM. The compounds were then serially diluted in medium with 1.2% DMSO. One-fourth final volume of the diluted compounds was transferred to 96 well plates. Test compounds were assayed in duplicate. DMSO was added to a row of “control cells” such that the final concentration of DMSO in each well was 0.3%. Wells to which no cells were added served as the “blank.” Wells to which no inhibitor was added served as “no inhibitor control”. The plates were returned to the incubator, and 5 days post addition of test compound, were analyzed as described below.
(§2) 3-(4,5-Dimethylthiazole-2-yl)-2,5-diphenyl-2H-tetrazolium bromide (thiazolyl blue; MTT) was added to each well to yield a final concentration of 1 mg/mL. The plates were then incubated at 37° C. for 3 hours. The plates were centrifuged at 1000 rpm for 5 minutes prior to aspiration of the MTT-containing medium. The MTT-containing medium was then removed and 100 μL 100% ethanol was added to each well to dissolve the resulting formazan metabolite. To ensure complete dissolution, plates were shaken for 15 minutes at room temperature. Absorbencies were read in a microtiter plate reader (Molecular Dynamics) at a wavelength of 570 nm with a 650 nm reference. Percent inhibition was calculated by subtracting the absorbance of the blank (no cell) wells from all wells, then subtracting the division of the average absorbance of each test duplicate by the average of the controls from 1.00. Inhibitory concentrations (IC50) were determined from the linear regression of a plot of the logarithm of the concentration versus the percent inhibition.
(§3) The colon adenocarcinoma line SW480 and the colon carcinoma line HCT-116 also were obtained from the ATCC and were tested according to the same protocol provided above for MDA-MB435 cell based assay with the following modifications. Cell line SW480 was plated at 1000 cells per well and analyzed at 6 days post addition of the test compound. Cell line HCT-116 was plated at 1000 cells per well and analyzed at 4 days post addition of test compound.

[2] = target: T1, Recombinant active human Cyclin E/CDK2 complexes (Homo sapiens, UniProt P24941); experiment: CDK2 FlashPlate Assay (inhibition of Rb phosphorylation); assay type: biochemical; settings: Cyclin E/CDK2, Rb substrate, 33P-ATP, 25 minutes at room temperature; read-out: Inhibition of Cdk2 - IC50 Range
T1 construct: made in house; host or cells: insect cells
Procedure: To determine inhibition of CDK2 activity, purified recombinant retinoblastoma (Rb) protein was coated on 96 well FlashPlates (New England Nuclear, Boston, Mass.). Rb is a natural substrate for phosphorylation by CDK2 (Herwig and Strauss Eurr. J. Biochem., Vol. 246 (1997) pp. 581-601 and references therein). Recombinant active human Cyclin E/CDK2 complexes were partially purified from extracts of insect cells. The active Cyclin E/CDK2 was added to the Rb-coated FlashPlates along with ^33P-ATP and dilutions of test compounds. Plates were incubated for 25 minutes at room temperature with shaking, then washed and counted in the Topcount scintillation counter (Packard Instrument Co., Downers Grove, Ill.). Dilutions of test compounds were tested in duplicate in each assay. The percent inhibition of Rb phosphorylation, which is a measure of the inhibition of CDK2 activity, was determined according to the following formula: [formula] where “test compound” refers to the average counts per minute of the test duplicates, “nonspecific” refers to the average counts per minute when no Cyclin E/CDK2 was added, and “total” refers to the average counts per minute when no compound was added.

[3] = tested on: estrogen receptor negative epithelial breast carcinoma line (MDA-MB-435); experiment: MDA-MB-435 cell-based antiproliferative (MTT) assay; settings: Homo sapiens, MDA-MB-435, 120 h, 2000 cells per well, 5 days post addition of test compound, read-out: Antiproliferative Activity of MDA-MB435 (breast) Assay - IC50 Range
Procedure: as §1, §2

[4] = tested on: colon adenocarcinoma line SW480; experiment: SW480 cell-based antiproliferative (MTT) assay; settings: Homo sapiens, SW480, 144 h, 1000 cells per well, 6 days post addition of test compound, read-out: Antiproliferative Activity SW480 (colon) Assay - IC50 Range
Procedure: as §1, §2, §3

pIC50 [1] | pIC50 [2] | pIC50 [3] | pIC50 [4] | melting point [°C] | SMILES
4.52 to 5.00 | 6.00 to 8.00 | 4.52 to 5.00 | 5.00 to 5.96 |  | O=[N+]([O-])c1ccc2c(c1)C(c1ccccc1F)=Nc1c[nH]nc1N2 [Compound A13, 5-(2-fluorophenyl)-7-nitro-pyrazolo[3,4][1,4]benzodiazepine]
6.00 to 8.00 | 6.00 to 8.00 | 6.00 to 8.00 | 6.00 to 8.00 |  | CCc1[nH]nc2c1N=C(c1ccccc1Cl)c1cc([N+](=O)[O-])ccc1N2 [Compound B4, 3-ethyl-5-(2-chlorophenyl)-7-nitro-pyrazolo[3,4][1,4]benzodiazepine]
5.00 to 5.96 | 6.00 to 8.00 | 5.00 to 5.96 | 5.00 to 5.96 |  | CCOC(=O)c1ccc2c(c1)C(c1ccccc1F)=Nc1c(n[nH]c1C)N2 [Compound B9, 3-methyl-5-(2-fluorophenyl)-7-carboethoxy-pyrazolo[3,4][1,4]benzodiazepine]
5.00 to 5.96 | 6.00 to 8.00 | 6.00 to 8.00 | 6.00 to 8.00 |  | Cc1[nH]nc2c1N=C(c1ccccc1F)c1cc(C#N)ccc1N2 [Compound B7, 3-methyl-5-(2-fluorophenyl)-pyrazolo[3,4][1,4]benzodiazepine-7-carbonitrile]
6.00 to 8.00 | 6.00 to 8.00 | 6.00 to 8.00 | 6.00 to 8.00 |  | Cc1[nH]nc2c1N=C(c1ccccc1Cl)c1cc([N+](=O)[O-])ccc1N2 [Compound B3, 3-methyl-5-(2-chlorophenyl)-7-nitro-pyrazolo[3,4][1,4]benzodiazepine]
4.52 to 5.00 | 5.00 to 6.00 | 4.52 to 5.00 | 4.52 to 5.00 |  | O=[N+]([O-])c1ccc2c(c1)C(c1ccccc1Cl)=Nc1c(n[nH]c1Cc1ccccc1)N2 [Compound B8, 3-(phenylmethyl)-5-(2-chlorophenyl)-7-nitro-pyrazolo[3,4][1,4]benzodiazepine]
4.52 to 5.00 | 6.00 to 8.00 | 4.52 to 5.00 | 5.00 to 5.96 |  | O=[N+]([O-])c1ccc2c(c1)C(c1ccccc1Cl)=Nc1c[nH]nc1N2 [Compound A5, 5-(2-chlorophenyl)-7-nitro-pyrazolo[3,4][1,4]benzodiazepine]
 |  |  |  | 260 to 263 | Cc1cnc2c(cc(N)c3nncc32)c(-c2ccccc2Cl)n1 [Compound C4, 3-methyl-5-(2-chlorophenyl)-7-amino-pyrazolo[3,4][1,4]benzodiazepine]
4.52 to 5.00 | 5.00 to 6.00 | 4.52 to 5.00 | 4.52 to 5.00 |  | Nc1ccc2c(c1)C(c1ccccc1Cl)=Nc1c[nH]nc1N2 [Compound C5, 5-(2-chlorophenyl)-7-amino-pyrazolo[3,4][1,4]benzodiazepine]
 |  |  |  | 196 to 198 | Cc1cnc2c(cc(NS(C)(=O)=O)c3nncc32)c(-c2ccccc2Cl)n1 [Compound C9, N-(3-methyl-5-(2-chlorophenyl)-pyrazolo[3,4][1,4]benzodiazepin-7-yl)-methanesulfonamide]
4.52 to 5.00 | 5.00 to 6.00 | 4.52 to 5.00 | 4.52 to 5.00 |  | O=[N+]([O-])c1ccc2c(c1)C(c1ccccc1Cl)=Nc1c(n[nH]c1CCc1ccccc1)N2 [Compound B5, 3-(2-phenylethyl)-5-(2-chlorophenyl)-7-nitro-pyrazolo[3,4][1,4]benzodiazepine]
 |  |  |  | 193 to 196 | N#Cc1cnc2c(cc([N+](=O)[O-])c3nncc32)c(-c2ccccc2Cl)n1 [Compound C18, 5-(2-chlorophenyl)-7-nitro-pyrazolo[3,4][1,4]benzodiazepine-3-carbonitrile]
5.00 to 5.96 | 6.00 to 8.00 |  | 4.52 to 5.00 |  | NNC(=O)c1[nH]nc2c1N=C(c1ccccc1Cl)c1cc([N+](=O)[O-])ccc1N2 [Compound C12, N-amino-5-(2-chlorophenyl)-7-nitro-pyrazolo[3,4][1,4]benzodiazepine-3-carboxamide]
 |  |  |  | 323 to 324 | Cc1cnc2c(cc(C(N)=O)c3nncc32)c(-c2ccccc2F)n1 [Compound C19, 3-methyl-5-(2-fluorophenyl)-pyrazolo[3,4][1,4]benzodiazepine-7-carboxamide]
4.52 to 5.00 | 6.00 to 8.00 |  | 4.52 to 5.00 |  | O=[N+]([O-])c1ccc2c(c1)C(c1ccccc1Cl)=Nc1c(n[nH]c1-c1ccco1)N2 [Compound D7]
4.52 to 5.00 | 6.00 to 8.00 | 4.52 to 5.00 | 4.52 to 5.00 |  | CCCc1[nH]nc2c1N=C(c1ccccc1Cl)c1cc([N+](=O)[O-])ccc1N2 [Compound B24, 3-propyl-5-(2-chlorophenyl)-7-nitro-pyrazolo[3,4][1,4]benzodiazepine]
 |  |  |  | > 340 | NC(=O)c1cnc2c(cc([N+](=O)[O-])c3nncc32)c(-c2ccccc2Cl)n1 [Compound C10, 5-(2-chlorophenyl)-7-nitro-pyrazolo[3,4][1,4]benzodiazepine-3-carboxamide]
5.00 to 5.96 | 6.00 to 8.00 | 6.00 to 8.00 | 5.00 to 5.96 |  | O=[N+]([O-])c1ccc2c(c1)C(c1ccccc1Cl)=Nc1c(n[nH]c1C1CC1)N2 [Compound B25, 3-cyclopropyl-5-(2-chlorophenyl)-7-nitro-pyrazolo[3,4][1,4]benzodiazepine]
4.52 to 5.00 | 6.00 to 8.00 |  | 4.52 to 5.00 |  | O=[N+]([O-])c1ccc2c(c1)C(c1ccccc1Cl)=Nc1c(n[nH]c1-c1cccs1)N2 [Compound D6]
5.00 to 5.96 | 6.00 to 8.00 | 6.00 to 8.00 | 6.00 to 8.00 |  | CC(C)c1[nH]nc2c1N=C(c1ccccc1Cl)c1cc([N+](=O)[O-])ccc1N2 [Compound B6]
 |  |  |  | > 300 | Clc1ccccc1-c1nccnc2c1cc(Cl)c1nncc12 [Compound A4, 5-(2-chlorophenyl)-7-chloro-pyrazolo[3,4][1,4]benzodiazepine]
